This is an account of results in BindingDB's records for doi:10.1021/jm051222g (Uppsala University, 2006).

The target in this test is Type-2 angiotensin II receptor (Sus scrofa). In words: Displacement of [125I]Ang2 from AT2 receptor in pig uterus myometrium. (In general: Displacement assays read how much labelled ligand stays bound in the presence of the test substance.)

By Ki is commonly meant a dissociation constant, usually derived from enzyme kinetics or from competition with a known ligand. Read a low Ki as higher affinity. On to `CC[C@H](C)[C@@H]1Nc2c(Cc3ccc(O)cc3)cc(NC(=O)[C@H](CCCN=C(N)N)NC(=O)[C@@H](N)CC(=O)O)cc2CN(CC(=O)N[C@@H](Cc2cnc[nH]2)C(=O)N2CCC[C@H]2C(=O)N[C@@H](Cc2ccccc2)C(=O)O)C1=O` [(3S)-3-amino-3-{[(1S)-1-{[(2S)-2-[(2S)-butan-2-yl]-4-({[(2S)-1-[(2S)-2-{[(1S)-1-carboxy-2-phenylethyl]carbamoyl}pyrrolidin-1-yl]-3-(1H-imidazol-4-yl)-1-oxopropan-2-yl]carbamoyl}methyl)-9-[(4-hydroxyphenyl)methyl]-3-oxo-2,3,4,5-tetrahydro-1H-1,4-benzodiazepin-7-yl]carbamoyl}-4-[(diaminomethylidene)amino]butyl]carbamoyl}propanoic acid], for which the affinity, expressed as Ki, was 4.7 nM.

Turning to `CC[C@H](C)[C@@H]1Nc2c(Cc3ccc(O)cc3)cc(NC(=O)[C@H](CCCN=C(N)N)NC(=O)[C@@H](N)CC(=O)O)cc2CN(CC(=O)N2CCC[C@H]2C(=O)N[C@@H](Cc2ccccc2)C(=O)O)C1=O` [(3S)-3-amino-3-{[(1S)-1-{[(2S)-2-[(2S)-butan-2-yl]-4-{2-[(2S)-2-{[(1S)-1-carboxy-2-phenylethyl]carbamoyl}pyrrolidin-1-yl]-2-oxoethyl}-9-[(4-hydroxyphenyl)methyl]-3-oxo-2,3,4,5-tetrahydro-1H-1,4-benzodiazepin-7-yl]carbamoyl}-4-[(diaminomethylidene)amino]butyl]carbamoyl}propanoic acid], the inhibition constant (Ki) amounted to 53.1 nM.
